The results in this text go back to patent publication US6589984B1, “Benzofurylpyrone derivatives” (Teijin Limited, priority 1998, dated 2003).

A value given as a limit tells only on which side of the number the result lay.

What is called IC50 is the concentration that inhibits the measured activity by half. Read a high IC50 as a need for much substance.

In the first assay the test system is Human hepatic cancer cells HepG2. Description: TG production inhibiting activity (14C-acetic acid incorporation into TG) in HepG2 cells. The conditions noted are these: Homo sapiens, HepG2; group criterion, alternatives: IC50 at least 10 μM and less than 100 μM, or at least 5% and less than 30% inhibition at 1 μM, or at least 30% and less than 50% inhibition at 10 μM. The class given is cell-based. The method, then: Human hepatic cancer cells HepG2 were inoculated into a 24-well plate (Costar No. 3524) at 4×10^4 cells/well, and 1 ml of medium (eRDF medium containing 10% bovine serum (Kyokuto Chemical Co.)) was used for 6 day culturing with 5% CO2 at 37° C. After drawing off the supernatant medium, the cells were freshly rinsed with 1 ml of PBS(−) buffer solution (Takara Shuzo) and drawn off. This procedure was repeated twice and then 1 ml of fresh medium (eRDF medium) was added.
6-(benzofuran-2-yl)-3,5-dimethyl-4-hydroxy-2H-pyran-2-one (Example 2) was dissolved in dimethylsulfoxide (DMSO) to prepare a 20 mM sample stock solution. A diluted solution was obtained by diluting the sample solution with DMSO.
To the cells prepared above there were added the sample stock solution or its diluted solution at 5 μl per well and 10 μl of ^14C-acetic acid solution (a solution of Amersham Code No. CFA13 diluted 4.4-fold with PBS(−) buffer), and culturing was carried out for one day with 5% CO2 at 37° C.
After the culturing was completed, the culture solution was removed, and 1 ml of extraction solution (a mixture of n-hexane and isopropyl alcohol at 2:1) was added for extraction treatment on the lipid components in the cells. After the treatment, the extract containing the obtained lipid components was air-dried, the residue was redissolved in 20 μl of a mixed solution of n-hexane and ethyl acetate at 9:1, and the solution was spotted on a thin-layer chromatography plate (S319, Tokyo Kasei) and developed by thin-layer chromatography with the mixed solution mentioned above. After air-drying, the lipid components were colored with iodine vapor, the portion corresponding to TG was cut out, and the amount of TG biosynthesized was measured with a liquid scintillation counter.
Molecule `Cc1c(-c2cc3cc(OCc4ccc5ccccc5c4)ccc3o2)oc(=O)c(C)c1O` [Example 175, 3,5-dimethyl-4-hydroxy-6-(5-(2-naphthylmethoxy)benzofuran-2-yl)-2H-pyran-2-one] registered an IC50 of 10 to 100 µM.
On to `Cc1c(O)c(-c2ccccc2)c(-c2cc3ccccc3o2)oc1=O` [Example 35, 6-(benzofuran-2-yl)-4-hydroxy-3-methyl-5-phenyl-2H-pyran-2-one], for which the IC50 lay in the range of 10 to 100 µM.
With `COCOc1ccc2cc(-c3oc(=O)c(C)c(OC(C)=O)c3C)oc2c1` [Example 292, 4-acetyloxy-3,5-dimethyl-6-(6-methoxymethoxybenzofuran-2-yl)-2H-pyran-2-one], the 50% inhibitory concentration (IC50) lay in the range of 10 to 100 µM.
Same read-out and setting: with `Cc1c(-c2cc3cc(N(C)C(=O)C(C)C)ccc3o2)oc(=O)c(C)c1O` [Example 254, 3,5-dimethyl-4-hydroxy-6-(5-(N-isobutyryl-N-methylamino)benzofuran-2-yl)-2H-pyran-2-one] the figure was 10 to 100 µM; with `CCOCCOc1ccc2oc(-c3oc(=O)c(C)c(O)c3C)cc2c1` [Example 185, 3,5-dimethyl-6-(5-(2-ethoxyethoxy)benzofuran-2-yl)-4-hydroxy-2H-pyran-2-one], 10 to 100 µM; with `Cc1c(-c2cc3cc(OCC4COc5ccccc5O4)ccc3o2)oc(=O)c(C)c1O` (centres unmarked) [Example 177, 6-(5-(1,4-benzodioxan-2-ylmethoxy)benzofuran-2-yl)-3,5-dimethyl-4-hydroxy-2H-pyran-2-one], 10 to 100 µM.
Same read-out and setting: then `Cc1c(-c2cc3cc(OCC4(C)COC4)ccc3o2)oc(=O)c(C)c1O` [Example 187, 3,5-dimethyl-4-hydroxy-6-(5-(3-methyloxetan-3-ylmethoxy)benzofuran-2-yl)-2H-pyran-2-one], with 10 to 100 µM; and `Cc1c(-c2cc3cc(OCc4cc(Cl)ccc4Cl)ccc3o2)oc(=O)c(C)c1O` [Example 155, 6-(5-(2,5-dichlorobenzyloxy)benzofuran-2-yl)-3,5-dimethyl-4-hydroxy-2H-pyran-2-one], with 10 to 100 µM.
The molecule `Cc1c(-c2cc3cc(OCc4ccccc4Br)ccc3o2)oc(=O)c(C)c1O` [Example 81, 6-(5-(2-bromobenzyloxy)benzofuran-2-yl)-3,5-dimethyl-4-hydroxy-2H-pyran-2-one] registered an IC50 of 10 to 100 µM.
Take `Cc1c(-c2cc3cc(OCC4COC(C)(C)O4)ccc3o2)oc(=O)c(C)c1O` (centres unmarked) [Example 183, 3,5-dimethyl-6-(5-(2,2-dimethyl-1,3-dioxolan-4-ylmethoxy)benzofuran-2-yl)-4-hydroxy-2H-pyran-2-one]: the IC50 is 10 to 100 µM.
The molecule `Cc1c(O)cc(-c2cc3ccccc3o2)oc1=O` [Example 32, 6-(benzofuran-2-yl)-4-hydroxy-3-methyl-2H -pyran-2-one] came in with an IC50 of 10 to 100 µM.
`CC#CCOc1ccc2oc(-c3oc(=O)c(C)c(O)c3C)cc2c1` [Example 181, 6-(5-(2-butyn-1-yloxy)benzofuran-2-yl)-3,5-dimethyl-4-hydroxy-2H-pyran-2-one] yielded an IC50 of 10 to 100 µM.

Still in this assay, the particulars now being: Homo sapiens, HepG2; group criterion, alternatives: IC50 less than 10 μM, or at least 30% inhibition at 1 μM, or at least 50% inhibition at 10 μM.
On to `Cc1c(-c2cc3ccccc3o2)oc(=O)c(C)c1OC(=O)c1ccc(CO)cc1` [Example 28, 6-(benzofuran-2-yl)-3,5-dimethyl-4-(4-hydroxymethylbenzoyloxy)-2H-pyran-2-one], for which the IC50 was below 10 µM.
As to `COc1ccc(C(=O)Oc2c(C)c(-c3cc4ccccc4o3)oc(=O)c2C)cc1` [Example 30, 6-(benzofuran-2-yl)-3,5-dimethyl-4-(4-methoxybenzoyloxy)-2H-pyran-2-one], the IC50 was below 10 µM.
Same read-out and setting: then `Cc1c(-c2cc3ccccc3o2)oc(=O)c(C)c1OC(=O)c1ccco1` [Example 62, 6-(benzofuran-2-yl)-3,5-dimethyl-4-(2-furoyloxy)-2H-pyran-2-one], with below 10 µM; and `Cc1c(-c2cc3cc(N(C)S(=O)(=O)c4ccc(Cl)cc4)ccc3o2)oc(=O)c(C)c1O` [Example 297, 6-(5-(N-(4-chlorophenylsulfonyl)-N-methylamino)benzofuran-2-yl)-3,5-dimethyl-4-hydroxy-2H-pyran-2-one], with below 10 µM.
On the same count and under the same terms, with `CC(=O)Oc1c(C)c(-c2cc3cc(OS(=O)(=O)C(F)(F)F)ccc3o2)oc(=O)c1C` [Example 257, 4-acetyloxy-3,5-dimethyl-6-(5-trifluoromethanesulfonyloxybenzofuran-2-yl)-2H-pyran-2-one] the figure was below 10 µM.
For `Cc1c(-c2cc3cc(OCc4cccs4)ccc3o2)oc(=O)c(C)c1O` [Example 138, 3,5-dimethyl-4-hydroxy-6-(5-((2-thienyl)methoxy)benzofuran-2-yl)-2H-pyran-2-one], the IC50 was below 10 µM.
The molecule `Cc1c(-c2cc3cc(OCc4ccccc4)ccc3o2)oc(=O)c(C)c1O` [Example 271, 6-(5-benzyloxybenzofuran-2-yl)-3,5-dimethyl-4-hydroxy-2H-pyran-2-one] came in with an IC50 below 10 µM.
The molecule `Cc1c(-c2cc3ccccc3o2)oc(=O)c(C)c1OC(=O)CCc1ccccc1` [Example 61, 6-(benzofuran-2-yl)-3,5-dimethyl-4-(3-phenylpropionyloxy)-2H-pyran-2-one] showed a half-inhibitory concentration (IC50) below 10 µM.
As for `Cc1c(-c2cc3ccccc3o2)oc(=O)c(C)c1OC(=O)c1cccc(N(C)C)c1` [Example 75, 6-(benzofuran-2-yl)-3,5-dimethyl-4-(3-dimethylaminobenzoyloxy)-2H-pyran-2-one], the half-inhibitory concentration (IC50) was below 10 µM.
With `COc1ccc(C(=O)Oc2c(C)c(-c3cc4ccccc4o3)oc(=O)c2C)c(OC)c1` [Example 72, 6-(benzofuran-2-yl)-4-(2,4-dimethoxybenzoyloxy)-3,5-dimethyl-2H-pyran-2-one], the concentration for half-maximal inhibition (IC50) was below 10 µM.
The molecule `Cc1c(-c2cc3ccccc3o2)oc(=O)c(C)c1OC(=O)CNC(=O)OC(C)(C)C` [Example 71, 6-(benzofuran-2-yl)-4-(2-(t-butoxycarbonylamino)acetyloxy)-3,5-dimethyl-2H-pyran-2-one] had an IC50 below 10 µM.
Take `CC(=O)Oc1c(C)c(-c2cc3ccc(-c4cccs4)cc3o2)oc(=O)c1C` [Example 25, 4-acetyloxy-3,5-dimethyl-6-(6-(2-thienyl)benzofuran-2-yl)-2H-pyran-2-one]: the IC50 was below 10 µM.
For the molecule `Cc1c(-c2cc3cc(OCc4ccc(Cl)cc4Cl)ccc3o2)oc(=O)c(C)c1O` [Example 153, 6-(5-(2,4-dichlorobenzyloxy)benzofuran-2-yl)-3,5-dimethyl-4-hydroxy-2H-pyran-2-one], the IC50 is below 10 µM.
As to `Cc1c(-c2cc3cc(C(=O)N(C)c4ccccc4)ccc3o2)oc(=O)c(C)c1O` [Example 299, 3,5-dimethyl-4-hydroxy-6-(5-(N-methyl-N-phenylcarbamoyl)benzofuran-2-yl)-2H-pyran-2-one], the IC50 was below 10 µM.
`CC(=O)Nc1ccc(C(=O)Oc2c(C)c(-c3cc4cc(OCc5ccccc5)ccc4o3)oc(=O)c2C)cc1` [Example 54, 4-(4-(acetylamino)benzoyloxy)-6-(5-benzyloxybenzofuran-2-yl)-3,5-dimethyl-2H-pyran-2-one] showed an IC50 below 10 µM.
The same measure, in the same setting: with `COC(=O)c1ccc2oc(-c3oc(=O)c(C)c(O)c3C)cc2c1` [Example 290, 3,5-dimethyl-4-hydroxy-6-(5-(methoxycarbonyl)benzofuran-2-yl)-2H-pyran-2-one] the figure was below 10 µM; with `CC(=O)Oc1c(C)c(-c2cc3cc(Br)ccc3o2)oc(=O)c1C` [Example 65, 4-acetyloxy-6-(5-bromobenzofuran-2-yl)-3,5-dimethyl-2H-pyran-2-one], below 10 µM.
`COCOc1ccc2cc(-c3oc(=O)c(C)c(O)c3C)oc2c1` [Example 291, 3,5-dimethyl-4-hydroxy-6-(6-methoxymethoxybenzofuran-2-yl)-2H-pyran-2-one] showed an IC50 below 10 µM.
Consider `CC(=O)Oc1c(C)c(-c2cc3cc(OCc4ccccc4)ccc3o2)oc(=O)c1C` [Example 270, 4-acetyloxy-6-(5-benzyloxybenzofuran-2-yl)-3,5-dimethyl-2H-pyran-2-one], for which the half-inhibitory concentration (IC50) was below 10 µM.
`COc1ccc2cc(-c3oc(=O)c(C)c(O)c3C)oc2c1` [Example 26, 3,5-dimethyl-4-hydroxy-6-(6-methoxybenzofuran-2-yl)-2H-pyran-2-one] yielded an IC50 below 10 µM.
Take `CC(=O)Oc1c(C)c(-c2cc3c(OC(C)=O)cccc3o2)oc(=O)c1C` [Example 265, 4-acetyloxy-6-(4-acetyloxybenzofuran-2-yl)-3,5-dimethyl-2H-pyran-2-one]: the IC50 was below 10 µM.
`Cc1c(-c2cc3ccc(OC4CCCc5ccccc54)cc3o2)oc(=O)c(C)c1O` (centres unmarked) [Example 170, 3,5-dimethyl-4-hydroxy-6-(6-(1,2,3,4-tetrahydronaphthalen-1-yloxy)benzofuran-2-yl)-2H-pyran-2-one]: the IC50 was below 10 µM.
Still for that read-out and setting: then `Cc1c(-c2cc3cc(OCc4cccnc4)ccc3o2)oc(=O)c(C)c1O` [Example 89, 3,5-dimethyl-4-hydroxy-6-(5-(3-pyridylmethoxy)benzofuran-2-yl)-2H-pyran-2-one], with below 10 µM.
